For 7 compounds, GI50 and TGI results are on record in PubChem BioAssay (NCI).

SMILES strings stand for the structures.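 The compound was tested at five concentrations on cells cultured in 96-well plates, with a 48-hour exposure period. Here, GI50 denotes the concentration required for 50% inhibition of growth. TGI: concentration producing complete growth inhibition.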

By GI50 is commonly meant the concentration that inhibits growth by half. As a reminder, the TGI is the concentration giving total growth inhibition. The low end stands for more potent growth arrest, the high end for less potent growth arrest.

Some test systems named below: MDA-MB-231 breast; A549 NSCLC; RPMI-8226 leukemia; CCRF-CEM leukemia; HCT-15 colon; SK-OV-3 ovarian; TK-10 renal; UO-31 renal; U251 CNS; SN12C renal.
What all share (test): DTP human tumour cell line panel, 48 h

For `COc1cc(NS(C)(=O)=O)ccc1Nc1c2ccc(Cl)cc2nc2c(OC)cccc12`, the GI50 with MDA-MB-231 breast is 3 µM; with A549 NSCLC, 0.0135 µM; in the assay on RPMI-8226 leukemia, 0.595 µM; in the assay on CCRF-CEM leukemia it was 0.0309 µM; in the assay with HCT-15 colon, 0.226 µM; in the assay on SK-OV-3 ovarian, 0.117 µM. Moreover, the GI50 with TK-10 renal was 0.137 µM; in the assay with UO-31 renal, 0.0466 µM; with U251 CNS, 0.0982 µM; with SN12C renal, 0.0628 µM. The TGI in the assay on MDA-MB-231 breast is 15.6 µM; in the assay on A549 NSCLC, 1.35 µM; with CCRF-CEM leukemia it was greater than 91.7 µM; with SK-OV-3 ovarian, 2 µM; in the assay on TK-10 renal it was 1.83 µM; with UO-31 renal, 0.698 µM. Besides, the TGI with U251 CNS was found to be 1.32 µM; with SN12C renal, 3.53 µM.

With `CC1=C(C(=O)Nc2ccc(F)c(Cl)c2)C(c2ccccc2Cl)NC(=S)N1` (stereo not drawn), the GI50 is 19.6 µM in the assay with MDA-MB-231 breast; 24.8 µM with A549 NSCLC; 38.3 µM with RPMI-8226 leukemia; greater than 50 µM with CCRF-CEM leukemia; 16.2 µM in the assay on HCT-15 colon; greater than 50 µM with SK-OV-3 ovarian. The GI50 in the assay with TK-10 renal is 48.8 µM; in the assay on UO-31 renal it was 21.3 µM; with U251 CNS, 25.6 µM; with SN12C renal, 13.3 µM. The TGI in the assay on MDA-MB-231 breast, in the assay on A549 NSCLC, with RPMI-8226 leukemia, in the assay on CCRF-CEM leukemia, in the assay on HCT-15 colon and in the assay with SK-OV-3 ovarian was greater than 50 µM each time. Besides, the TGI was greater than 50 µM in the assay on TK-10 renal, greater than 50 µM in the assay with UO-31 renal, greater than 50 µM in the assay on U251 CNS and 42.9 µM in the assay on SN12C renal.

On to `O=[N+]([O-])c1ccc(Br)c([N+](=O)[O-])c1`, for which the GI50 in the assay on MDA-MB-231 breast was 2.68 µM; in the assay with A549 NSCLC, 4.12 µM; in the assay on RPMI-8226 leukemia, 2.36 µM; with CCRF-CEM leukemia it was 1.79 µM; with HCT-15 colon it was 1.93 µM; in the assay with SK-OV-3 ovarian, 8.37 µM. Besides, the GI50 in the assay on TK-10 renal is 2.3 µM; in the assay on UO-31 renal it was 0.266 µM; in the assay on U251 CNS, 1.72 µM; with SN12C renal, 2.37 µM. The TGI with MDA-MB-231 breast was found to be 7.12 µM; in the assay on A549 NSCLC, 16.4 µM; in the assay with RPMI-8226 leukemia it was 5.51 µM; in the assay with CCRF-CEM leukemia, 6.83 µM; in the assay on HCT-15 colon, 4.59 µM; in the assay on SK-OV-3 ovarian, 20.6 µM. The TGI came to 6.22 µM in the assay with TK-10 renal, 0.779 µM in the assay with UO-31 renal, 3.29 µM with U251 CNS and 5.68 µM in the assay with SN12C renal.

Turning to `CC(=O)N1N=C2/C(=C/c3ccccc3)CC(C)CC2C1c1ccccc1` (stereo not drawn), the GI50 in the assay with MDA-MB-231 breast was 14.2 µM; in the assay on A549 NSCLC it was 13.3 µM; in the assay with RPMI-8226 leukemia, 9.54 µM; in the assay on CCRF-CEM leukemia it was 15.5 µM; in the assay on HCT-15 colon, 13.7 µM; with SK-OV-3 ovarian it was 17.1 µM. The GI50 in the assay on TK-10 renal is 19.7 µM; with UO-31 renal, 12.8 µM; with U251 CNS it was 11.7 µM; in the assay on SN12C renal it was 14.8 µM. The TGI in the assay on MDA-MB-231 breast is 31.8 µM; in the assay on A549 NSCLC, 51.5 µM; with RPMI-8226 leukemia it was 76.1 µM; in the assay on CCRF-CEM leukemia, 53.9 µM; in the assay with HCT-15 colon, 28.9 µM; in the assay with SK-OV-3 ovarian, 40.3 µM. The TGI was 44.9 µM in the assay on TK-10 renal, 31.1 µM with UO-31 renal, 25.4 µM in the assay with U251 CNS and 30.4 µM in the assay with SN12C renal.

Turning to `N#C/C(=C\c1ccc(-c2ccc(Cl)cc2)o1)C(=O)Nc1ncc(Cc2ccc(Cl)cc2)s1`, the GI50 in the assay with MDA-MB-231 breast was 1.64 µM; with A549 NSCLC it was 1.33 µM; in the assay on RPMI-8226 leukemia, 4.45 µM; with CCRF-CEM leukemia, 2.21 µM; with HCT-15 colon, 2.3 µM; in the assay with SK-OV-3 ovarian, 3.24 µM. Also, the GI50 in the assay with TK-10 renal is 2 µM; with UO-31 renal it was 2.48 µM; in the assay on U251 CNS it was 1.09 µM; with SN12C renal it was 1.28 µM. Besides, the TGI with MDA-MB-231 breast is 4.4 µM; with A549 NSCLC it was 3.05 µM; with RPMI-8226 leukemia it was greater than 100 µM; in the assay on CCRF-CEM leukemia, greater than 100 µM; in the assay with HCT-15 colon it was greater than 100 µM; in the assay on SK-OV-3 ovarian, 9.52 µM. Moreover, the TGI in the assay with TK-10 renal came to 3.71 µM; in the assay on UO-31 renal it was 7.87 µM; in the assay on U251 CNS, 2.43 µM; in the assay with SN12C renal it was 3.32 µM.

As to `Oc1ccc(-c2nnc3sc(-c4ccc(F)c(Oc5ccccc5)c4)nn23)cc1`, the GI50 in the assay with MDA-MB-231 breast is 16.4 µM; in the assay with A549 NSCLC, 30.9 µM; in the assay on RPMI-8226 leukemia it was 28.4 µM; with CCRF-CEM leukemia, greater than 100 µM; with HCT-15 colon, 91.2 µM; with SK-OV-3 ovarian, 44.6 µM. In addition, the GI50 is 29.6 µM with TK-10 renal, 5.62 µM in the assay with UO-31 renal, 17.5 µM in the assay with U251 CNS and 37.6 µM in the assay on SN12C renal. The TGI is 47.4 µM with MDA-MB-231 breast; greater than 100 µM in the assay with A549 NSCLC; greater than 100 µM in the assay with RPMI-8226 leukemia; greater than 100 µM with CCRF-CEM leukemia; greater than 100 µM in the assay on HCT-15 colon; greater than 100 µM in the assay with SK-OV-3 ovarian. Further, the TGI is 77 µM in the assay with TK-10 renal, greater than 100 µM in the assay on UO-31 renal, 36.5 µM in the assay on U251 CNS and greater than 100 µM in the assay on SN12C renal.

On to `O=C1NN(c2ccc(C(=O)O)cc2)C(=O)/C1=C\c1ccc([N+](=O)[O-])o1`, for which the GI50 in the assay on MDA-MB-231 breast is 58.5 µM; in the assay with A549 NSCLC it was greater than 100 µM; in the assay on RPMI-8226 leukemia, 30.6 µM; in the assay with CCRF-CEM leukemia it was 22.7 µM; with HCT-15 colon it was 20.4 µM; with SK-OV-3 ovarian, greater than 100 µM. In addition, the GI50 is 25.5 µM with TK-10 renal, 59.1 µM in the assay on UO-31 renal, 79.9 µM in the assay with U251 CNS and 58.8 µM in the assay on SN12C renal. The TGI in the assay with MDA-MB-231 breast is greater than 100 µM; in the assay on A549 NSCLC, greater than 100 µM; with RPMI-8226 leukemia, 83.8 µM; in the assay on CCRF-CEM leukemia, 61.8 µM; in the assay on HCT-15 colon it was 45.4 µM; in the assay on SK-OV-3 ovarian it was greater than 100 µM. For the same compound, the TGI in the assay with TK-10 renal is 66.8 µM; with UO-31 renal, greater than 100 µM; in the assay on U251 CNS it was greater than 100 µM; with SN12C renal, greater than 100 µM.
